Results on five compounds are retold here after ChEMBL document CHEMBL1152151, “Synthesis and preliminary pharmacological evaluation of N-2-(4-(4-(2-substitutedthiazol-4-yl) piperazin-1-yl)-2-oxoethyl)acetamides as novel atypical antipsychotic agents” (Bioorg Med Chem Lett, 2008).

Data set [1] deals with Mus musculus. The experiment in a line: Inhibition of dopamine D2 receptor-mediated apomorphine-induced cage climbing behavior in Swiss albino mouse at 10 mg/kg measured on 10 mins. Type of data set: functional.
The test system of data set [2] is Mus musculus. The experiment in a line: Inhibition of dopamine D2 receptor-mediated apomorphine-induced cage climbing behavior in Swiss albino mouse at 10 mg/kg measured on 20 mins. Type of data set: functional.
Data set [3] has as its system Mus musculus. The experiment in a line: Inhibition of dopamine D2 receptor-mediated apomorphine-induced cage climbing behavior in Swiss albino mouse at 10 mg/kg measured on 30 mins. Type of data set: functional. To be noted: 0.5 h.
Data set [4] deals with Mus musculus. The experiment in a line: Inhibition of 5HT2A receptor-mediated quipazine-induced head twitches in Swiss albino mouse at 10 mg/kg. Type of data set: functional.
Data set [5] is filed under the species Mus musculus. The experiment in a line: Toxic cataleptic effect in Swiss albino mouse assessed as maximum average cataleptic time. Type of data set: toxicity, organism-based. To be noted: in vivo.
Data set [6] is filed under the species Mus musculus. The experiment in a line: Toxic cataleptic effect against Swiss albino mouse. Type of data set: toxicity, organism-based. To be noted: in vivo.
The subject of data set [7] is Mus musculus. Put plainly: Inhibition of dopamine D2 receptor-mediated apomorphine-induced cage climbing behavior in Swiss albino mouse at 10 mg/kg. Type of data set: functional.
Data set [8] relates to Mus musculus. Put plainly: Ratio of inhibition of quipazine-induced head twitches to inhibition of apomorphine-induced cage climbing behavior in Swiss albino mouse at 10 mg/kg. Type of data set: functional.
For data set [9], the system named is Mus musculus. The experiment in a line: Inhibition of dopamine D2 receptor-mediated apomorphine-induced cage climbing behavior in Swiss albino mouse at 1 mg/kg, ip. Type of data set: functional, organism-based. More on the design: dose 1 mg/kg.
Data set [10] concerns Mus musculus. The experiment in a line: Inhibition of 5HT2A receptor-mediated quipazine-induced head twitches in Swiss albino mouse at 0.6 mg/kg, ip. More on the design: dose 0.6 mg/kg. Type of data set: functional, organism-based.

Active and inactive are the calls of the source. The calls are words filed in the database; no cut-off is given here.

The inhibition in vivo is how much of the control response was suppressed. A lower inhibition in vivo goes with a weak effect.

Regarding `CC(=O)NCC(=O)N1CCN(CCc2ccc(-c3csc(C)n3)cc2)CC1`, the inhibition in vivo at 10 mg/kg in data set [1] worked out at 70%; in data set [2] it was 65%; in data set [3], 70%; in data set [4], 20%; in [7], 70%. Moreover, the Activity in [5] is 4.62 s; in data set [6], “Non-toxic”. For the same compound, the Ratio in data set [8] is on record as 0.2857.
For `CC(=O)NCC(=O)N1CCN(CCc2ccc(-c3nc(C)sc3C)cc2)CC1`, the inhibition in vivo at 10 mg/kg in data set [1] came out at 65%; in [2], 65%; in data set [3], 80%; in data set [4] it was 71%; in data set [7] it was 80%. In addition, the Activity in [5] was 5.12 s; in data set [6], “Non-toxic”. For the same compound, in data set [8], the Ratio is recorded as 0.8875.
In the case of `CNc1nc(-c2ccc(CCN3CCN(C(=O)CNC(C)=O)CC3)cc2)cs1`, the inhibition in vivo at 10 mg/kg in [1] was 60%; in [2], 50%; in data set [3], 60%; in data set [4], 54%; in [7], 60%. Also, the Activity is given as 16.54 s in data set [5] and “Non-toxic” in [6]. Moreover, the Ratio in [8] was found to be 0.9.
As to `O=C(CCCN1CCC(O)(c2ccc(Cl)cc2)CC1)c1ccc(F)cc1`, in data set [9], the result was Active.
Consider `Cc1nc2n(c(=O)c1CCN1CCC(c3noc4cc(F)ccc34)CC1)CCCC2` [RISPERIDONE], for which the inhibition in vivo at 10 mg/kg in [1] worked out at 91%; in [2], 91%; in data set [3], 90%; in data set [4], 100%; in data set [7], 91%. Besides, in data set [10], the outcome was Active. The Activity was 2.54 s in data set [5] and “Non-toxic” in [6]. Further, in data set [8], the Ratio stood at 1.0989.
